Laboratory results reported in patent US20220242853A1, “MODIFIED CYANINE DYES AND CONJUGATES THEREOF” (BRACCO IMAGING S.P.A., priority 2019, published 2022).

How the values were obtained:
[1] = target: T1, human serum albumin (HSA) (Homo sapiens, UniProt P02768); test: Binding affinity to human serum albumin (absorbance peak shift or ultrafiltration method); details: phosphate buffer, 25° C., one of the two methods; read-out: HSA affinity (KA) (converted)
T1 construct: purchased Sigma Aldrich A9511
T1 sequence (P02768 25-609): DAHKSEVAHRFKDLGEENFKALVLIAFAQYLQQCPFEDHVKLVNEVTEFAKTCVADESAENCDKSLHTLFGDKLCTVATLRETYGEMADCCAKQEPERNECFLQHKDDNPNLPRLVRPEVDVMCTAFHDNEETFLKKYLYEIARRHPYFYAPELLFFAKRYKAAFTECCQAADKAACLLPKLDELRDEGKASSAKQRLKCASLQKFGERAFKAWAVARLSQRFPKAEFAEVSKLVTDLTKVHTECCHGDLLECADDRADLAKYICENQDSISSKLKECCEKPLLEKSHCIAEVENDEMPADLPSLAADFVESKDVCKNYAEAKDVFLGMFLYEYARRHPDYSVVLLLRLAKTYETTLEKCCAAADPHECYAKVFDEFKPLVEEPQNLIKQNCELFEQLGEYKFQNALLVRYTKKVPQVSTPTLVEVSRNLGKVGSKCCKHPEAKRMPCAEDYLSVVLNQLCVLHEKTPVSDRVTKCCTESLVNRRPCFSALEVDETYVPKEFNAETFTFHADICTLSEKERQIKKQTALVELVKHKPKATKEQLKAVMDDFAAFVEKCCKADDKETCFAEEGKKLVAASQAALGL
Method: Binding affinity to human serum albumin (HSA; Sigma Aldrich, A9511) was measured using two methods, according to the level of binding affinity of the compounds.
The first method, optimal for compounds which strongly interact with HSA, is based on the analysis of the absorbance spectrum peak shift after the incubation of the dye in solutions containing HSA. Briefly, the samples were incubated at a fixed concentration (1 μM) with HSA dilutions (1×10^−6-4×10^−4M), in phosphate buffer for 5 min in the spectrophotometer at 25° C. before measurements. The measure was performed at the maximum absorbance wavelength of the shifted peak.
The second method, optimal for compound with low affinity for HSA, is based on measuring the variation of the absorbance of solutions containing the dye and various concentrations of HSA after ultrafiltration. Briefly, each compound was incubated at a fixed concentration (2 μM) with HSA dilutions (1×10^−6-4×10^−4 M), in phosphate buffer. The samples were centrifuged (10,000 g for 30 min at 25° C.) in a Microcon device (10 kDa MWCO, Amicon Ultra-0.5 Centrifugal Filter Unit with Ultracel-10 membrane, Millipore) and the absorbance measurements of the filtrates were obtained with the spectrophotometer at the maximum absorbance wavelength of the fluorophore.
For both methods, the affinity constant (KA, M^−1) was calculated by fitting the raw data with the following formula:
wherein ΔA/b=Absorbance measured (b=1 cm) KRL=KA calculated by regression analysis (curve fitting) Δε·Rt calculated by regression analysis (curve fitting) [L]=Albumin concentration
In the first method, ΔA/b corresponds to the absorbance measured for each sample, whereas in the second method ΔA/b is obtained subtracting the absorbance of the control sample (dye without HSA) to the absorbance of each other sample.
However, the measurement of the affinity constant is more precise when the suitable method is used as a function of the affinity level of the compound.

[2] = Biodistribution and elimination by optical imaging after intravenous administration; format: in vivo, Balb/c nu/nu mice; details: male, Balb/c nu/nu, mouse, in vivo, iv
Method: Biodistribution and elimination of the fluorescent agents of the invention was evaluated by optical imaging after intravenous administration in male Balb/c nu/nu mice, 6-10 weeks of age (Charles River Laboratories). Briefly, mice housed 4 per cage and fed with VRF1 (P) sterile diet (Special Diets Services Ltd) up to the end of the acclimation period (5 days). Then, AIN-76a rodent diet irradiated (Research Diets), a special diet that reduces auto-fluorescence, was used up to the end of the experiments. Imaging experiments were performed using the preclinical optical system IVIS Spectrum (Perkin Elmer).
In vivo imaging was performed under gas anesthesia (Sevofluorane 6-8% in oxygen). Animals were intravenously injected with the compounds and imaged longitudinally at 30 min, 1 h, 2 h, 3 h, 4 h, 6 h, and 24 h post-administration. Thus, animals were euthanized by anesthesia overdose, and the main tissues and organs of interest were excised for ex vivo optical imaging. Regions of interest (ROIs) were drawn on the tissues of interest for each fluorescence image at every time point to evaluate signal intensity (expressed as Average adiant Efficiency). The ratio between the fluorescence signal in the muscle (background tissue) and excretory organs (kidney, liver) was then calculated to assess the contrast. The tissue half-life was calculated by fitting the fluorescence signal decay in the muscle with a bi-exponential decay equation model using GraphPad Prism Software (version 5 for Windows).

[3] = tested on: Detroit-562 cells; test: Tumor uptake by ex vivo optical imaging, orthotopic human head and neck cancer model; format: in vivo, Balb/c nu/nu mice; details: ex vivo tongue, 24 hours after iv 3 nmol/mouse
Method: Parallel experiments were performed in an animal model of human head and neck cancer (orthotopic), using Detroit-562 cells, overexpressing in particular integrin receptor αvβ6. Briefly, the human pharyngeal carcinoma cells Detroit-562 (ATCC, CCL-138) were cultured in Eagle's Minimum Essential Medium (EMEM) supplemented with 10% Fetal Bovine Serum (FBS), 2 mM glutamine, 100 IU/mL penicillin, 100 μg/mL streptomycin. Male Balb/c nu/nu mice, 4-6 weeks of age (Charles River Laboratories), underwent orthotopic implantation in the anterior portion of the tongue of about 2.5 million cells suspended in 0.03 mL di EMEM. Mice were housed 4 per cage with food and water ad libitum. Animals were fed with VRF1 (P) sterile diet (Special Diets Services Ltd) up to the end of the acclimation period (5 days). Then, AIN-76a rodent diet irradiated (Research Diets), a special diet that reduces auto-fluorescence, was used up to the end of the experiments. Tumor growth was monitored by longitudinal assessments using a caliper up to the target size of 10-20 mm^3 (7-10 days after cell implantation).
Imaging experiments were performed using the preclinical optical system IVIS Spectrum (Perkin Elmer). Animals were intravenously injected (lateral tail vein) with 3 nmol/mouse, at 24 hours post-administration were euthanized by anesthesia overdose, and the tongues were excised for ex vivo optical imaging. […]

- Kd [1]: 159 µM
SMILES: CC(CC[N+]1=C(/C=C/C=C/C=C/C=C2/N(CCCCCC(=O)NCCCC[C@@H]3NC(=O)C(Cc4ccccc4)NC(=O)[C@H](CC(=O)O)NC(=O)CNC(=O)[C@H](CCCNC(=N)N)NC3=O)c3ccc(C(=O)NCC(O)C(O)C(O)C(O)CO)cc3C2(C)C)C(C)(C)c2cc(C(=O)NCC(O)C(O)C(O)C(O)CO)ccc21)S(=O)(=O)[O-] (stereo partly drawn) [Compound 1]
- half-life [2]: < 1 h
- Tumor-to-background contrast [3]: high tumor-to-background contrast
